Experiments:
SIRT-1 gene = test: Real time PCR gene expression in mouse myotube: SIRT-1; type: cell-based; conditions: C2C12 myotubes, 10, 30 and 100 μM, 16 hours, corrected with β-actin, FIG. 4D
Procedure: (§1) Mouse myoblasts were purchased from the Korean Cell Line Bank (KCLB), and base sequences of primers for β-actin, SIRT-1, PGC-1α, NRF-1 and PPAR-δ genes were as follows:
(§2) 1×10^7 C2C12 (mouse myoblasts) differentiated into myotubes using 2% horse serum […]. The mouse myotube was treated with myricetin by concentration and cultured for 16 hours, RNA was extracted from the myotube using TRizol, and then cDNA was synthesized through reverse transcription PCR (RT-PCR).
(§3) Real time PCR was performed using β-actin as a control and the primers for respective genes (95° C. for 3 minutes, <95° C. for 10 seconds, 60° C. for 10 seconds, 72° C. for 30 seconds>−39 cycles, 95° C. for 10 seconds, 65° C. for 5 seconds). The PGC-1α, NRF-1, PPAR-δ, and SIRT-1 were corrected with the β-actin, and the resulting value was obtained.

PGC-1α gene = test: Real time PCR gene expression in mouse myotube: PGC-1α; type: cell-based; conditions: C2C12 myotubes, 10, 30 and 100 μM, 16 hours, corrected with β-actin, FIG. 4A
Procedure: as §1, §2, §3

ICR mice [1] = test: Rotarod test (sensorimotor function); type: in vivo, mouse; conditions: 50 mg/kg oral daily for 2 weeks, 4 to 40 rpm, vs negative control, p<0.005, FIG. 3
Procedure: To confirm an effect of myricetin on a sensorimotor function of a mouse, 8-week-old ICR mice were purchased from KOATECH, precultured for 1 week, and divided into two groups, each group having 5 mice. As described in Example 1, the experimental animals were divided into two groups, and then the first group was determined as a negative control, and to the second group, myricetin was orally administered daily at a concentration of 50 mg/kg using a 1 ml syringe for 2 weeks.
To measure an effect of myricetin on the sensorimotor function, a rotarod test (Panlab&Harvard, Spain) was performed on the mice in the control group and the myricetin-administered group. The rotarod test was performed to measure motor coordination (exercise adaptation) and a sense of balance of the animal (Michel Pratte et al., Behavioural brain research 216:313-320, 2011; Medina R. et al., FEBS Lett. 180(1): 77-80, 1985).
A tail of the mouse was put on a rotarod, and a speed of the rotarod was increased from 4 to 40 rpm within 5 minutes by an increase of 4 rpm at 30-second intervals. The time during which the mouse stayed on the rotarod was measured. The experiment was repeated five times, and the time during which the mouse stayed the longest on the rotarod was used as a result value.

ICR mice [2] = test: Treadmill run to exhaustion (endurance exercise capacity); type: in vivo, mouse; conditions: 50 mg/kg oral daily for two weeks, vs phosphate buffered saline control, p<0.0005, FIG. 1
Procedure: Ten 8-week-old ICR mice were purchased from KOATECH, precultured for 1 week, and then divided into two groups, each group having five mice. The first group was set up as a negative control by administering phosphate buffered saline, and to the second group, myricetin was orally administered daily at a concentration of 50 mg/kg for two weeks. To measure a change in endurance exercise capacity due to myricetin, the animals in the negative control and the myricetin-administered group were run on a treadmill (Panlab&Harvard, Spain). An exercise performance protocol was configured to make the mice run until exhaustion at 25 cm/sec for 20 minutes, 30 cm/sec for 20 minutes, 33 cm/sec for 20 minutes, 36 cm/sec for 20 minutes and 36 cm/sec for 15 minutes with a gradient of 5°, and 30 cm/sec for 15 minutes and 41 cm/sec with a gradient of 10°. To adapt the mice to running on the treadmill, the day before the experiment, they were run at 27 cm/sec for 10 minutes with a gradient of 5°. The mice were not fed for two hours before the running on the treadmill on the day of the experiment, and then the maximum exercise capacity of the experimental animals was measured after the running on the treadmill. […]

[3] = Change in body weight of SD rats; type: in vivo, rat; conditions: 50 mg/kg for 5 days, 225 g before administration, control group 285 g, FIG. 5A
Procedure: 7-week-old SD rats were purchased from KOATECH, precultured for 1 week, and randomly divided into two groups, each group having 5 rats. First, 50 mg/kg of myricetin was administered into the test group, and phosphate buffered saline was administered into the control group for 5 days. A change in body weight was measured using an electric measure (CAS, China). Before administration, the body weights of the rats in each group were the same as 225 g on average, but after the end of the experiment, the body weights of the rats in the control group were 285 g on average, and the body weights of the rats in the myricetin-administered group were 275 g on average (FIG. 5A).

NRF-1 gene = test: Real time PCR gene expression in mouse myotube: NRF-1; type: cell-based; conditions: C2C12 myotubes, 10, 30 and 100 μM, 16 hours, corrected with β-actin, FIG. 4B
Procedure: as §1, §2, §3

[4] = Daily food intake of SD rats (action metabolism meter); type: in vivo, rat; conditions: 50 mg/kg for 5 days, FIG. 5B
Procedure: 7-week-old SD rats were purchased from KOATECH, precultured for 1 week, and randomly divided into two groups, each group having 5 rats. First, 50 mg/kg of myricetin was administered into the test group, and phosphate buffered saline was administered into the control group for 5 days. The investigation of food intake was performed by automatically measuring the daily food intake of the phosphate buffered saline-administered mouse and the myricetin-administered mouse using an action metabolism meter (Panlab&Harvard, Spain). The average food intake was determined as an average food intake of each of the five rats in one group.

PPAR-δ gene = test: Real time PCR gene expression in mouse myotube: PPAR-δ; type: cell-based; conditions: C2C12 myotubes, 10, 30 and 100 μM, 16 hours, corrected with β-actin, FIG. 4C
Procedure: as §1, §2, §3

ICR-series mice = test: Grip strength test (maximum muscle strength); type: in vivo, mouse; conditions: 50 mg/kg oral daily for two weeks, vs negative control, p<0.005 / p<0.00005, FIGS. 2A and 2B
Procedure: To measure an effect of myricetin on enhancing endurance exercise capacity of a mouse, ten 8-week-old ICR-series mice having a body weight of 30±5 g were used. As described in Example 1, the experimental animals were divided into two groups. The first group was determined as a negative control, and to the second group, myricetin was orally administered daily at a concentration of 50 mg/kg for two weeks. To measure a change in the maximum strength of a muscle due to myricetin, a grip strength test (Bioseb, France) was performed on the animals in the control group and the myricetin-administered group. Maximum grip strengths of the front paws and rear paws were measured by pulling a tail of the mouse backward while the mouse grabbed a grip strength tester. The grip strength was measured three times, and an average value was used.

For O=c1c(O)c(-c2cc(O)c(O)c(O)c2)oc2cc(O)cc(O)c12 [myricetin, 3,5,7-trihydroxy-2-(3,4,5-trihydroxyphenyl)-4-chromenone], the “expression of SIRT-1 compared to the control group” value (SIRT-1 gene) was “increased two to three times”, the “expression of PGC-1α compared to the control group” value (PGC-1α gene) was “increased two to three times” and the “time during which the mouse stayed on the rotarod” value (ICR mice [1]) was “longer”. For the same compound, the “time run on the treadmill until exhaustion (maximum exercise capacity)” value (ICR mice [2]) was “longer”, the “body weight on average after the end of the experiment” value [3] was 275 g and the “expression of NRF-1 compared to the control group” value (NRF-1 gene) was “increased two to three times”. For the same compound, the “average daily food intake vs phosphate buffered saline-administered group” value [4] was “smaller”, the “expression of PPAR-δ compared to the control group” value (PPAR-δ gene) was “increased two to three times” and the “maximum grip strength of front paws and rear paws (maximum muscle strength)” value (ICR-series mice) was “increased”.

From patent publication US9675580B2, “Method of treatment for enhancing exercise performance” (priority 2012, dated 2017)
